Values quoted from earlier work in patent publication US20100151572A1, “ANTI-TUMORAL COMPOSITIONS METHODS” (priority 2005, published 2010).

Assays:
[1] = molecular target: T1, human enzyme (PNP) (Homo sapiens, UniProt P00491); conditions: cited from earlier work
T1 sequence (P00491 1-289): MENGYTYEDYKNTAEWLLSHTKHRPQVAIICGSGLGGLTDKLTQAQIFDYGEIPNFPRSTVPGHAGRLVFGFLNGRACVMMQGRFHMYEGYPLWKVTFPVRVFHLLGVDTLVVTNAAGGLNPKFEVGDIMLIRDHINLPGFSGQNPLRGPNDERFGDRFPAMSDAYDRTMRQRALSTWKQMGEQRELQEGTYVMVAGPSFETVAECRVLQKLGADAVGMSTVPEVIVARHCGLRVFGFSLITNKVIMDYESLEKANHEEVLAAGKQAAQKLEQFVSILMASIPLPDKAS

[2] = molecular target: E. coli PNP (Escherichia coli, UniProt P0ABP8); conditions: abrogates E. coli PNP activity; cited from earlier work
Chain of E. coli PNP (P0ABP8 whole entry): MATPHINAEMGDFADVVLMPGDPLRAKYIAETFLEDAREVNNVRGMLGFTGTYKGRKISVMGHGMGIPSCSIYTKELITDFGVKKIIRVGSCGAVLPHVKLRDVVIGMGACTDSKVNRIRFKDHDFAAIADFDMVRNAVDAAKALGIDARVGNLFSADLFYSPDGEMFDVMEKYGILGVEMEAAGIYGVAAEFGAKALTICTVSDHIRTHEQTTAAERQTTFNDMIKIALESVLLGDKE

Q: With Nc1ncnc2c([C@@H]3O[C@H](CO)[C@@H](O)[C@H]3O)[nH]nc12 [Formycin A] as the compound, how does the “activity against the human enzyme” value [1] read?
A: inactive

Q: What about the Ki [2] of the same compound?
A: 5 µM
